# Reference: ChEMBL document CHEMBL4004803, “Syntheses and antibacterial activity of soluble 9-bromo substituted indolizinoquinoline-5,12-dione derivatives” (Eur J Med Chem, 2017)
# Tests used:
# Staphylococcus aureus [1] = experiment: Antibacterial activity against […] Staphylococcus aureus ATCC 25923 after 20 to 24 hrs by two-fold microdilution method; type: functional
# [2] = system: Staphylococcus haemolyticus; experiment: Antibacterial activity against Staphylococcus haemolyticus CICC 10373 after 20 to 24 hrs by two-fold microdilution method; type: functional
# [3] = system: Staphylococcus epidermidis; experiment: Antibacterial activity against Staphylococcus epidermidis ATCC 12228 after 20 to 24 hrs by two-fold microdilution method; type: functional
# Enterococcus faecalis = experiment: Antibacterial activity against Enterococcus faecalis ATCC 29212 after 20 to 24 hrs by two-fold microdilution method; type: functional
# Staphylococcus aureus [4] = experiment: Antibacterial activity against methicillin-resistant Staphylococcus aureus 122045 clinical isolate after 20 to 24 hrs by two-fold microdilution method; type: functional
# Staphylococcus aureus [5] = experiment: Antibacterial activity against methicillin-resistant Staphylococcus aureus 212014 clinical isolate after 20 to 24 hrs by two-fold microdilution method; type: functional
# Staphylococcus aureus [6] = experiment: Antibacterial activity against methicillin-resistant Staphylococcus aureus 214026 clinical isolate after 20 to 24 hrs by two-fold microdilution method; type: functional
# Staphylococcus aureus [7] = experiment: Antibacterial activity against methicillin-resistant Staphylococcus aureus clinical isolate after 20 to 24 hrs by two-fold microdilution method; type: functional
# Staphylococcus aureus [8] = experiment: Antibacterial activity against methicillin-resistant Staphylococcus aureus 110414 clinical isolate after 20 to 24 hrs by two-fold microdilution method; type: functional
# Staphylococcus aureus [9] = experiment: Antibacterial activity against methicillin-resistant Staphylococcus aureus 10281-2 clinical isolate after 20 to 24 hrs by two-fold microdilution method; type: functional
# Staphylococcus aureus [10] = experiment: Antibacterial activity against methicillin-resistant Staphylococcus aureus GLH14 clinical isolate after 20 to 24 hrs by two-fold microdilution method; type: functional
# Staphylococcus aureus [11] = experiment: Antibacterial activity against methicillin-resistant Staphylococcus aureus GLH15 clinical isolate after 20 to 24 hrs by two-fold microdilution method; type: functional
# Staphylococcus aureus [12] = experiment: Antibacterial activity against methicillin-resistant Staphylococcus aureus 122710-2 clinical isolate after 20 to 24 hrs by two-fold microdilution method; type: functional
# Staphylococcus aureus [13] = experiment: Antibacterial activity against methicillin-resistant Staphylococcus aureus 122820-2 clinical isolate after 20 to 24 hrs by two-fold microdilution method; type: functional
# Staphylococcus aureus [14] = experiment: Antibacterial activity against methicillin-resistant Staphylococcus aureus 123152 clinical isolate after 20 to 24 hrs by two-fold microdilution method; type: functional
# Staphylococcus aureus [15] = experiment: Antibacterial activity against methicillin-resistant Staphylococcus aureus 12308 clinical isolate after 20 to 24 hrs by two-fold microdilution method; type: functional
# Staphylococcus aureus [16] = experiment: Antibacterial activity against methicillin-resistant Staphylococcus aureus 130031 clinical isolate after 20 to 24 hrs by two-fold microdilution method; type: functional
# Staphylococcus aureus [17] = experiment: Antibacterial activity against methicillin-resistant Staphylococcus aureus 221022 clinical isolate after 20 to 24 hrs by two-fold microdilution method; type: functional
# Staphylococcus aureus [18] = experiment: Antibacterial activity against methicillin-resistant Staphylococcus aureus 221014 clinical isolate after 20 to 24 hrs by two-fold microdilution method; type: functional
# Staphylococcus aureus [19] = experiment: Antibacterial activity against methicillin-resistant Staphylococcus aureus 224001 clinical isolate after 20 to 24 hrs by two-fold microdilution method; type: functional
# Staphylococcus aureus [20] = experiment: Antibacterial activity against methicillin-resistant Staphylococcus aureus 316038 clinical isolate after 20 to 24 hrs by two-fold microdilution method; type: functional
# Staphylococcus aureus [21] = experiment: Antibacterial activity against methicillin-resistant Staphylococcus aureus 316031 clinical isolate after 20 to 24 hrs by two-fold microdilution method; type: functional
# Staphylococcus aureus [22] = experiment: Antibacterial activity against methicillin-resistant Staphylococcus aureus 3250299 clinical isolate after 20 to 24 hrs by two-fold microdilution method; type: functional
# Staphylococcus aureus [23] = experiment: Antibacterial activity against methicillin-resistant Staphylococcus aureus 502025 clinical isolate after 20 to 24 hrs by two-fold microdilution method; type: functional
# Staphylococcus aureus [24] = experiment: Antibacterial activity against methicillin-resistant Staphylococcus aureus 518036 clinical isolate after 20 to 24 hrs by two-fold microdilution method; type: functional
# Staphylococcus aureus [25] = experiment: Antibacterial activity against methicillin-resistant Staphylococcus aureus 519030 clinical isolate after 20 to 24 hrs by two-fold microdilution method; type: functional
# Staphylococcus aureus [26] = experiment: Antibacterial activity against methicillin-resistant Staphylococcus aureus 530231 clinical isolate after 20 to 24 hrs by two-fold microdilution method; type: functional
# Staphylococcus aureus [27] = experiment: Antibacterial activity against methicillin-resistant Staphylococcus aureus 531026 clinical isolate after 20 to 24 hrs by two-fold microdilution method; type: functional
# Staphylococcus aureus [28] = experiment: Antibacterial activity against methicillin-resistant Staphylococcus aureus 614019 clinical isolate after 20 to 24 hrs by two-fold microdilution method; type: functional
# Staphylococcus aureus [29] = experiment: Antibacterial activity against methicillin-resistant Staphylococcus aureus 1012029 clinical isolate after 20 to 24 hrs by two-fold microdilution method; type: functional
# Staphylococcus aureus [30] = experiment: Antibacterial activity against methicillin-resistant Staphylococcus aureus 503025 clinical isolate after 20 to 24 hrs by two-fold microdilution method; type: functional
# Staphylococcus aureus [31] = experiment: Antibacterial activity against methicillin-resistant Staphylococcus aureus 908046 clinical isolate after 20 to 24 hrs by two-fold microdilution method; type: functional
# Staphylococcus aureus [32] = experiment: Antibacterial activity against methicillin-resistant Staphylococcus aureus 912014 clinical isolate after 20 to 24 hrs by two-fold microdilution method; type: functional
# Staphylococcus aureus [33] = experiment: Antibacterial activity against methicillin-resistant Staphylococcus aureus 1023043 clinical isolate after 20 to 24 hrs by two-fold microdilution method; type: functional
# Staphylococcus aureus [34] = experiment: Antibacterial activity against methicillin-resistant Staphylococcus aureus 1024010 clinical isolate after 20 to 24 hrs by two-fold microdilution method; type: functional
# Staphylococcus aureus [35] = experiment: Antibacterial activity against methicillin-resistant Staphylococcus aureus 1024004-2 clinical isolate after 20 to 24 hrs by two-fold microdilution method; type: functional
# Staphylococcus aureus [36] = experiment: Antibacterial activity against methicillin-resistant Staphylococcus aureus 1026211 clinical isolate after 20 to 24 hrs by two-fold microdilution method; type: functional
# Staphylococcus aureus [37] = experiment: Antibacterial activity against methicillin-resistant Staphylococcus aureus 1103006 clinical isolate after 20 to 24 hrs by two-fold microdilution method; type: functional
# Staphylococcus aureus [38] = experiment: Antibacterial activity against methicillin-resistant Staphylococcus aureus 1106003 clinical isolate after 20 to 24 hrs by two-fold microdilution method; type: functional
# Staphylococcus aureus [39] = experiment: Antibacterial activity against methicillin-resistant Staphylococcus aureus 1108204 clinical isolate after 20 to 24 hrs by two-fold microdilution method; type: functional
# Staphylococcus aureus [40] = experiment: Antibacterial activity against methicillin-resistant Staphylococcus aureus 1207026 clinical isolate after 20 to 24 hrs by two-fold microdilution method; type: functional
# Staphylococcus aureus [41] = experiment: Antibacterial activity against methicillin-resistant Staphylococcus aureus 1212057-1 clinical isolate after 20 to 24 hrs by two-fold microdilution method; type: functional
# Staphylococcus aureus [42] = experiment: Antibacterial activity against methicillin-resistant Staphylococcus aureus 10844 clinical isolate after 20 to 24 hrs by two-fold microdilution method; type: functional
# Staphylococcus aureus [43] = experiment: Antibacterial activity against methicillin-resistant Staphylococcus aureus 109244 clinical isolate after 20 to 24 hrs by two-fold microdilution method; type: functional
# Staphylococcus aureus [44] = experiment: Antibacterial activity against methicillin-resistant Staphylococcus aureus 112047 clinical isolate after 20 to 24 hrs by two-fold microdilution method; type: functional
# Staphylococcus aureus [45] = experiment: Antibacterial activity against methicillin-resistant Staphylococcus aureus 125025 clinical isolate after 20 to 24 hrs by two-fold microdilution method; type: functional
# [46] = Solubility of the compound in water at 25 degC measured after shaking for 4 hrs by UV method; type: physicochemical; settings: water
compound,measurement,setting,value
O=C1c2cccnc2C(=O)c2c1c(C(=O)OCCCCCCN1CCCCC1)c1ccc(Br)cn21,MIC,Staphylococcus aureus [1],0.031 µg/mL
same,MIC,[2],0.125 µg/mL
same,MIC,[3],≤ 0.0078 µg/mL
same,MIC,Enterococcus faecalis,0.125 µg/mL
same,MIC,Staphylococcus aureus [4],0.031 µg/mL
same,MIC,Staphylococcus aureus [5],≤ 0.0078 µg/mL
same,MIC,Staphylococcus aureus [6],≤ 0.0078 µg/mL
same,MIC50,Staphylococcus aureus [7],0.063 µg/mL
same,MIC90,Staphylococcus aureus [7],0.125 µg/mL
same,MIC,Staphylococcus aureus [8],0.031 µg/mL
same,MIC,Staphylococcus aureus [9],0.063 µg/mL
same,MIC,Staphylococcus aureus [10],0.063 µg/mL
same,MIC,Staphylococcus aureus [11],0.063 µg/mL
same,MIC,Staphylococcus aureus [12],0.031 µg/mL
same,MIC,Staphylococcus aureus [13],0.063 µg/mL
same,MIC,Staphylococcus aureus [14],0.125 µg/mL
same,MIC,Staphylococcus aureus [15],0.063 µg/mL
same,MIC,Staphylococcus aureus [16],0.125 µg/mL
same,MIC,Staphylococcus aureus [17],0.125 µg/mL
same,MIC,Staphylococcus aureus [18],0.125 µg/mL
same,MIC,Staphylococcus aureus [19],0.125 µg/mL
same,MIC,Staphylococcus aureus [20],0.031 µg/mL
same,MIC,Staphylococcus aureus [21],0.125 µg/mL
same,MIC,Staphylococcus aureus [22],0.063 µg/mL
same,MIC,Staphylococcus aureus [23],0.063 µg/mL
same,MIC,Staphylococcus aureus [24],0.125 µg/mL
same,MIC,Staphylococcus aureus [25],0.063 µg/mL
same,MIC,Staphylococcus aureus [26],0.125 µg/mL
same,MIC,Staphylococcus aureus [27],0.063 µg/mL
same,MIC,Staphylococcus aureus [28],0.063 µg/mL
same,MIC,Staphylococcus aureus [29],0.063 µg/mL
same,MIC,Staphylococcus aureus [30],0.125 µg/mL
same,MIC,Staphylococcus aureus [31],0.031 µg/mL
same,MIC,Staphylococcus aureus [32],0.063 µg/mL
same,MIC,Staphylococcus aureus [33],0.125 µg/mL
same,MIC,Staphylococcus aureus [34],0.063 µg/mL
same,MIC,Staphylococcus aureus [35],0.063 µg/mL
same,MIC,Staphylococcus aureus [36],0.063 µg/mL
same,MIC,Staphylococcus aureus [37],> 16 µg/mL
same,MIC,Staphylococcus aureus [38],16 µg/mL
same,MIC,Staphylococcus aureus [39],0.063 µg/mL
same,MIC,Staphylococcus aureus [40],0.063 µg/mL
same,MIC,Staphylococcus aureus [41],0.016 µg/mL
same,MIC,Staphylococcus aureus [42],0.063 µg/mL
same,MIC,Staphylococcus aureus [43],0.031 µg/mL
same,MIC,Staphylococcus aureus [44],0.031 µg/mL
same,MIC,Staphylococcus aureus [45],0.125 µg/mL
same,solubility thermodynamic at 4 h,[46],1980 µg/mL
